This is an account of results in ChEMBL document CHEMBL4715785, “Pyrazolo[1,5a]pyrimidines as a new class of FUSE binding protein 1 (FUBP1) inhibitors” (Bioorg Med Chem, 2016).

Assay [1] deals with T1, Far upstream element-binding protein 1 (Homo sapiens, UniProt Q96AE4).
T1 sequence (Q96AE4 whole entry): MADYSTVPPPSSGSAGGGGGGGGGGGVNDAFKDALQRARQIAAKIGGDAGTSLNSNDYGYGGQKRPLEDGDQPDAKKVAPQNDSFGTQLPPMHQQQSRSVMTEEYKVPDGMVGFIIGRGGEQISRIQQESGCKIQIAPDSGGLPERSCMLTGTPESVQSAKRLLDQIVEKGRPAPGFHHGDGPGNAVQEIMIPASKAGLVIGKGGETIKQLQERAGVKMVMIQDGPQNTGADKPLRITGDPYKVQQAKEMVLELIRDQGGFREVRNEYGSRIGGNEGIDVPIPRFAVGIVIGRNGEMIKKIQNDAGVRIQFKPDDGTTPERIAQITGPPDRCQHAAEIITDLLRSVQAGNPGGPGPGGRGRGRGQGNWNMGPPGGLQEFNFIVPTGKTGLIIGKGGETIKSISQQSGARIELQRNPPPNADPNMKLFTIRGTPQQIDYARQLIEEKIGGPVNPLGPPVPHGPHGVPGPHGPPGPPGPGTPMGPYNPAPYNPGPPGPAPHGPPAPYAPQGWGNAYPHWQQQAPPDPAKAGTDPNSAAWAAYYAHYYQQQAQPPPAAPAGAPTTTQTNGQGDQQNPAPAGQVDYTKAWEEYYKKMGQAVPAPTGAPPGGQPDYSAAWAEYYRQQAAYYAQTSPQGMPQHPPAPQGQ
In words: Inhibition of 6xHis-tagged human FUBP1 expressed in HEK293T cells assessed as reduction in FUBP1 interaction with biotinylated NLC chip immobilized FUSE p21 oligonucleotide incubated for 21 hrs by SPR analysis.

Assay [2] relates to Hep 3B2. In words: Decrease in cell expansion in human Hep3B cells at 10 to 20 uM measured after 48 to 72 hrs by Neubauer chamber method. Format: functional, cell-based. Conditions: dose 10-20 µM, time 48-72 hrs.
For assay [3], the system named is HepG2. In words: Decrease in cell expansion in human HepG2 cells at 10 to 20 uM measured after 48 to 72 hrs by Neubauer chamber method. Conditions: dose 10-20 µM, time 48-72 hrs. Format: functional, cell-based.
Assay [4] deals with HepG2. In words: Induction of cell death in human HepG2 cells assessed as increase in number of dead cells at 10 to 20 uM measured after 72 hrs. Format: functional, cell-based. Conditions: dose 10-20 µM.
Assay [5] relates to Huh-7. Nature of the assay: Decrease in cell expansion in human Huh-7 cells at 10 to 20 uM measured after 24 hrs by Neubauer chamber method. Format: functional, cell-based. Conditions: dose 10-20 µM.
The subject of assay [6] is Hep 3B2. Nature of the assay: Cell cycle arrest in human Hep3B cells assessed as accumulation at sub-G1 phase at 10 uM measured after 24 hrs by propidium iodide and RNase A staining based Nicoletti assay (reference value: 2.5 %). Format: functional.
Assay [7] has as its system Hep 3B2. Nature of the assay: Cell cycle arrest in human Hep3B cells assessed as accumulation at sub-G1 phase at 20 uM measured after 24 hrs by propidium iodide and RNase A staining based Nicoletti assay (reference value: 2.5 %). Format: functional.
The test system of assay [8] is Hep 3B2. In words: Induction of cell death in human Hep3B cells assessed as increase in number of dead cells at 10 to 20 uM measured after 24 hrs. Format: functional, cell-based. Conditions: dose 10-20 µM.

SMILES strings stand for the structures. Calls of active or inactive are those of the source. The rule behind the calls is not given here.

For `COc1ccc(-c2cc(C(F)(F)F)n3nc(C(C)(C)C)cc3n2)cc1OC`, the IC50 entry in assay [1] (hek293t) was “Not Active”.

Consider `O=[N+]([O-])c1cccc(-c2cc(C(F)(F)F)n3nc(-c4ccco4)cc3n2)c1`, for which, in assay [1] (hek293t), the IC50 result is “Not Active”.

`FC(F)(F)c1cc(-c2cccnc2)nc2cc(-c3cccs3)nn12`: the IC50 in assay [1] (read-out: IC50) is more than 100 µM.

Regarding `FC(F)(F)c1cc(-c2ccncc2)nc2cc(-c3ccco3)nn12`, in assay [1] (hek293t), the IC50 entry is listed as “Not Active”.

With `Cc1cc2nc(-c3ccncc3)cc(C(F)(F)F)n2n1`, the IC50 entry in assay [1] (hek293t) was “Not Active”.

Consider `FC(F)(F)c1cc(-c2nccs2)nc2cc(-c3cccs3)nn12`, for which the IC50 entry in assay [1] (hek293t) is on record as “Not Active”.

Consider `FC(F)(F)c1cc(-c2ccc(Cl)cc2)nc2cc(C3CC3)nn12`, for which the IC50 result in assay [1] (hek293t) is “Not Active”.

Take `FC(F)(F)c1cc(-c2ccc3c(c2)OCO3)nc2cc(-c3ccco3)nn12`: in assay [1] (hek293t), the half-inhibitory concentration (IC50) result was “Not Active”.

Regarding `FC(F)(F)c1cc(-c2ccc3ccccc3c2)nc2cc(-c3ccco3)nn12`, in assay [1] (hek293t), the IC50 entry is listed as “Not Active”.

In the case of `FC(F)(F)c1cc(-c2cccc(Cl)c2)nc2cc(-c3cccs3)nn12`, in assay [1] (hek293t), the IC50 entry was “Not Active”.

On to `FC(F)(F)c1cc(-c2ccccn2)nc2cc(C3CC3)nn12`, for which the IC50 entry in assay [1] (hek293t) is “Not Active”.

Regarding `COc1ccc(-c2cc(C(F)(F)F)n3nc(-c4cccs4)cc3n2)cc1OC`, the outcome in assay [2], in assay [3], in assay [5] and in assay [8] was Active. Further, the outcome in assay [4] was inactive. The Activity in assay [6] was 7.7%; in assay [7] it was 16.1%.

With `FC(F)(F)c1cc(-c2ccncc2)nc2cc(-c3cccs3)nn12`, the IC50 in assay [1] (read-out: IC50) was more than 100 µM.

Regarding `COc1ccc(-c2cc(C(F)(F)F)n3nc(C4CC4)cc3n2)cc1OC`, in assay [1] (read-out: IC50), the IC50 stood at 102 µM.

In the case of `FC(F)(F)c1cc(-c2ccc(Cl)cc2)nc2cc(-c3cccs3)nn12`, the IC50 in assay [1] (read-out: IC50) was more than 100 µM.

Take `FC(F)(F)c1cc(-c2cccs2)nc2cc(-c3ccco3)nn12`: in assay [1] (hek293t), the IC50 entry is reported as “Not Active”.

As to `Fc1ccc(-c2cc(C(F)(F)F)n3nc(-c4cccs4)cc3n2)cc1`, the IC50 entry in assay [1] (hek293t) was “Not Active”.

As to `FC(F)(F)c1cc(-c2ccc3c(c2)CCC3)nc2cc(-c3ccco3)nn12`, the IC50 entry in assay [1] (hek293t) was “Not Active”.

Take `FC(F)(F)c1cc(-c2ccc(Cl)cc2)nc2cc(-c3ccco3)nn12`: in assay [1] (hek293t), the IC50 result was “Not Active”.

Consider `Cc1cc(C(F)(F)F)n2nc(-c3cccs3)cc2n1`, for which, in assay [1] (hek293t), the IC50 entry is given as “Not Active”.

As for `COc1ccc(-c2cc(C(F)(F)F)n3nc(-c4ccc(Cl)cc4)cc3n2)cc1OC`, the IC50 result in assay [1] (hek293t) is listed as “Not Active”.

`FC(F)(F)c1cc(-c2ccccc2)nc2cc(-c3cccs3)nn12`: the IC50 in assay [1] (read-out: IC50) is more than 100 µM.

For the compound `FC(F)(F)c1cc(-c2cccs2)nc2cc(-c3cccs3)nn12`, the concentration for half-maximal inhibition (IC50) in assay [1] (read-out: IC50) is more than 100 µM.

`COc1ccc(-c2cc(C(F)(F)F)n3nc(-c4cccs4)cc3n2)cc1`: the IC50 in assay [1] (read-out: IC50) was more than 100 µM.

With `FC(F)(F)c1cc(-c2ccco2)nc2cc(-c3ccco3)nn12`, the IC50 entry in assay [1] (hek293t) is reported as “Not Active”.

For `COc1ccc(-c2cc(C(F)(F)F)n3nc(-c4ccco4)cc3n2)cc1`, the IC50 result in assay [1] (hek293t) is recorded as “Not Active”.

With `COc1ccc(-c2cc(C(F)(F)F)n3nc(-c4ccccc4)cc3n2)cc1OC`, in assay [1] (hek293t), the IC50 entry is given as “Not Active”.

What is called IC50 is the concentration needed to halve the response being measured.
